One may read the IC50 as the midpoint of a concentration-inhibition curve.

Among the data in ChEMBL document CHEMBL1201862, “PubChem BioAssay data set” (2004) are IC50 values, retold here.

Experiment [1] has as its target Melanin-concentrating hormone receptor 1 (Homo sapiens, UniProt Q99705). Kind of experiment: Late-stage fluorescence-based counterscreen for antagonists of the G-protein coupled receptor 7 (GPR7): cell-based dose response assay to identify antagonists of the melanin-concentrating hormone receptor 1 (MCHR1) Set 5. The experiment is classed as functional. For orientation: Counterscreens check selectivity or assay interference.

Experiment [2] concerns the target Neuropeptides B/W receptor type 1 (Homo sapiens, UniProt P48145). Briefly: human NPBW1 receptor blockade, IC50 – cell-based, fluorescence, dose response, set 5, late-stage follow-up (AID 588566). The experiment is classed as functional.

The structures appear in SMILES notation. Calls of active or inactive are those of the source. No stated cut-off is given here; in the data, active = IC50 of 10 µM or less and inactive = more.

Neuropeptides B/W receptor type 1, sequence (P48145 whole entry): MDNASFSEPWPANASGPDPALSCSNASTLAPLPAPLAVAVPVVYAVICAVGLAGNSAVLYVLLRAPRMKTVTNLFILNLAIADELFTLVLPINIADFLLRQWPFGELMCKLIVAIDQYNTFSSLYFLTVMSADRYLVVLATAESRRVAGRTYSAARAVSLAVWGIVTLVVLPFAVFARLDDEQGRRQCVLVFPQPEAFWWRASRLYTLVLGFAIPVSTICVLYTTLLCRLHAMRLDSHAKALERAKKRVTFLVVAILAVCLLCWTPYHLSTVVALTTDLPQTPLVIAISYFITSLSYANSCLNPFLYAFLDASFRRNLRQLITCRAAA
Melanin-concentrating hormone receptor 1, sequence (Q99705 whole entry): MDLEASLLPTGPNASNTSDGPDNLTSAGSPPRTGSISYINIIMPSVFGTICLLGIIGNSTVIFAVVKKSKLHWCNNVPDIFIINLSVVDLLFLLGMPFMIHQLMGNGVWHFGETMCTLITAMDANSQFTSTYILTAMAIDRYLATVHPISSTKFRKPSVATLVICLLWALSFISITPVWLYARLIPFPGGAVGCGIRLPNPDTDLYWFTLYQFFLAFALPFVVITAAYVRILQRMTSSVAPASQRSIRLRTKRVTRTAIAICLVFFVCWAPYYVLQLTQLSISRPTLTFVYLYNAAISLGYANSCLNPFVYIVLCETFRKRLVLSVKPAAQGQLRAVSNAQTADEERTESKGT

On to `COc1ccc(Oc2c(F)cnn(-c3cccc(C)c3)c2=O)cc1`, for which the IC50 in experiment [1] is 7.64 µM (active); in experiment [2], 4.04 µM (active).
